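1) Cells in 96-well plates. 2) Compound, 48 h, 5 concentrations. 3) Linear interpolation between surrounding doses. 4) Unreached endpoint = highest concentration. GI50 = concentration required for 50% inhibition of growth.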 The source made the active and inactive calls. Rule as the data show it: active = GI50 up to about 1.1 µM and inactive = higher.
Tests used:
Experiment in all cases: DTP human tumour cell line panel, 48 h
786-0 = system: 786-0
A498 = system: A498
A549 = system: A549
ACHN = system: ACHN
BT-549 = system: BT-549
CAKI-1 = system: CAKI-1
CCRF-CEM = system: CCRF-CEM
COLO 205 = system: COLO 205
DU-145 = system: DU-145
EKVX = system: EKVX
HCC 2998 = system: HCC 2998
HCT-116 = system: HCT-116
HCT-15 = system: HCT-15
HL-60 = system: HL-60
HOP-62 = system: HOP-62
HOP-92 = system: HOP-92
HT-29 = system: HT-29
Hs-578T = system: Hs-578T
IGROV-1 = system: IGROV-1
K562 = system: K562
LOX IMVI = system: LOX IMVI
M14 = system: M14
MCF7 = system: MCF7
MDA-MB-231 = system: MDA-MB-231
MDA-MB-435 = system: MDA-MB-435
MDA-N = system: MDA-N
MOLT-4 = system: MOLT-4
Malme-3M = system: Malme-3M
NCI-H226 = system: NCI-H226
NCI-H23 = system: NCI-H23
NCI-H460 = system: NCI-H460
NCI/ADR-RES = system: NCI/ADR-RES
OVCAR-3 = system: OVCAR-3
OVCAR-4 = system: OVCAR-4
OVCAR-5 = system: OVCAR-5
OVCAR-8 = system: OVCAR-8
PC-3 = system: PC-3
RPMI-8226 = system: RPMI-8226
RXF 393 = system: RXF 393
SF-268 = system: SF-268
SF-295 = system: SF-295
SF-539 = system: SF-539
SK-MEL-28 = system: SK-MEL-28
SK-MEL-2 = system: SK-MEL-2
SK-MEL-5 = system: SK-MEL-5
SK-OV-3 = system: SK-OV-3
SN12C = system: SN12C
SNB-19 = system: SNB-19
SNB-75 = system: SNB-75
SR = system: SR
SW-620 = system: SW-620
T47D = system: T47D
TK-10 = system: TK-10
U-251 = system: U-251
UACC-257 = system: UACC-257
UACC-62 = system: UACC-62
UO-31 = system: UO-31
KM12 = system: KM12
NCI-H522 = system: NCI-H522

C=C(C)[C@@]12C[C@H](OC(=O)[C@H](O)[C@@H](NC(=O)c3ccccc3)c3ccccc3)C(C)=C1[C@@H](OC(C)=O)C(=O)[C@@]1(C)C([C@@H]2OC(=O)c2cc(F)cc(F)c2)C2(OC(C)=O)CO[C@@H]2C[C@@H]1O (stereo partly specified)
GI50 (786-0): 0.0853 µM (active)
GI50 (A498): 0.164 µM (active)
GI50 (A549): 0.0752 µM (active)
GI50 (ACHN): 0.555 µM (active)
GI50 (BT-549): 0.194 µM (active)
GI50 (CAKI-1): 0.525 µM (active)
GI50 (CCRF-CEM): 0.0367 µM (active)
GI50 (COLO 205): 0.0789 µM (active)
GI50 (DU-145): 0.267 µM (active)
GI50 (EKVX): 1.02 µM (active)
GI50 (HCC 2998): 0.0668 µM (active)
GI50 (HCT-116): 0.0201 µM (active)
GI50 (HCT-15): 0.292 µM
GI50 (HL-60): 0.0269 µM (active)
GI50 (HOP-62): 0.123 µM (active)
GI50 (HOP-92): 2.4 µM (inactive)
GI50 (HT-29): 0.0278 µM (active)
GI50 (Hs-578T): 0.0186 µM (active)
GI50 (IGROV-1): 0.361 µM (active)
GI50 (K562): 0.0361 µM (active)
GI50 (LOX IMVI): 0.0791 µM (active)
GI50 (M14): 0.141 µM (active)
GI50 (MCF7): 0.029 µM (active)
GI50 (MDA-MB-231): 0.21 µM (active)
GI50 (MDA-MB-435): 0.0117 µM (active)
GI50 (MDA-N): 0.0133 µM (active)
GI50 (MOLT-4): 0.0428 µM (active)
GI50 (Malme-3M): 0.461 µM (active)
GI50 (NCI-H226): 0.883 µM (active)
GI50 (NCI-H23): 0.152 µM (active)
GI50 (NCI-H460): 0.0348 µM (active)
GI50 (NCI/ADR-RES): 1.57 µM (inactive)
GI50 (OVCAR-3): 0.122 µM (active)
GI50 (OVCAR-4): 2.38 µM (inactive)
GI50 (OVCAR-5): 0.165 µM (active)
GI50 (OVCAR-8): 0.065 µM (active)
GI50 (PC-3): 0.0826 µM (active)
GI50 (RPMI-8226): 0.0236 µM (active)
GI50 (RXF 393): 0.0578 µM (active)
GI50 (SF-268): 0.161 µM (active)
GI50 (SF-295): > 10 µM (inactive)
GI50 (SF-539): 0.0282 µM (active)
GI50 (SK-MEL-28): 0.363 µM (active)
GI50 (SK-MEL-2): 0.144 µM (active)
GI50 (SK-MEL-5): 0.117 µM (active)
GI50 (SK-OV-3): 0.417 µM (active)
GI50 (SN12C): 0.144 µM (active)
GI50 (SNB-19): 0.238 µM (active)
GI50 (SNB-75): 0.0966 µM (active)
GI50 (SR): 0.169 µM (active)
GI50 (SW-620): 0.0505 µM (active)
GI50 (T47D): 0.117 µM (active)
GI50 (TK-10): 0.3 µM (active)
GI50 (U-251): 0.0822 µM (active)
GI50 (UACC-257): 0.0796 µM (active)
GI50 (UACC-62): 0.076 µM (active)
GI50 (UO-31): 0.973 µM (active)

COc1cc(-c2cc(=O)c3c(O)c(OC)c(OC)c(OC)c3o2)cc(OC)c1OC [GARDENIN]
GI50 (786-0): 3.72 µM (inactive)
GI50 (A498): 2.92 µM (inactive)
GI50 (A549): 7.18 µM (inactive)
GI50 (ACHN): 3.33 µM (inactive)
GI50 (BT-549): 6.76 µM (inactive)
GI50 (CCRF-CEM): > 100 µM (inactive)
GI50 (COLO 205): > 100 µM (inactive)
GI50 (DU-145): > 100 µM (inactive)
GI50 (EKVX): 22.3 µM (inactive)
GI50 (HCC 2998): 22.5 µM (inactive)
GI50 (HCT-116): 4.5 µM (inactive)
GI50 (HCT-15): > 100 µM
GI50 (HL-60): > 60 µM (inactive)
GI50 (HOP-62): 3.43 µM (inactive)
GI50 (HOP-92): 4.04 µM (inactive)
GI50 (HT-29): > 100 µM (inactive)
GI50 (Hs-578T): 3.15 µM (inactive)
GI50 (IGROV-1): 68.4 µM (inactive)
GI50 (K562): > 100 µM (inactive)
GI50 (KM12): > 100 µM (inactive)
GI50 (LOX IMVI): 6.31 µM (inactive)
GI50 (M14): > 100 µM (inactive)
GI50 (MCF7): > 100 µM (inactive)
GI50 (MDA-MB-231): 2.91 µM (inactive)
GI50 (MDA-MB-435): > 100 µM (inactive)
GI50 (MDA-N): > 92.7 µM (inactive)
GI50 (MOLT-4): > 100 µM (inactive)
GI50 (Malme-3M): > 100 µM (inactive)
GI50 (NCI-H226): 13.7 µM (inactive)
GI50 (NCI-H23): 15.1 µM (inactive)
GI50 (NCI-H460): 5.01 µM (inactive)
GI50 (NCI-H522): 9.55 µM (inactive)
GI50 (NCI/ADR-RES): 7.29 µM (inactive)
GI50 (OVCAR-3): 3.36 µM (inactive)
GI50 (OVCAR-4): > 100 µM (inactive)
GI50 (OVCAR-5): > 68.9 µM (inactive)
GI50 (OVCAR-8): 4.57 µM (inactive)
GI50 (PC-3): > 100 µM (inactive)
GI50 (RPMI-8226): > 44.7 µM (inactive)
GI50 (RXF 393): 8.83 µM (inactive)
GI50 (SF-268): 8.71 µM (inactive)
GI50 (SF-295): 8.47 µM (inactive)
GI50 (SF-539): 17.1 µM (inactive)
GI50 (SK-MEL-28): > 100 µM (inactive)
GI50 (SK-MEL-2): > 55.6 µM (inactive)
GI50 (SK-MEL-5): 11 µM (inactive)
GI50 (SK-OV-3): 5.45 µM (inactive)
GI50 (SN12C): 3.94 µM (inactive)
GI50 (SNB-19): 10.7 µM (inactive)
GI50 (SNB-75): 2.23 µM (inactive)
GI50 (SR): > 100 µM (inactive)
GI50 (T47D): 10.2 µM (inactive)
GI50 (TK-10): 6.92 µM (inactive)
GI50 (U-251): 3.01 µM (inactive)
GI50 (UACC-257): > 100 µM (inactive)
GI50 (UACC-62): 32.4 µM (inactive)
GI50 (UO-31): 7.36 µM (inactive)

NC1=NC(c2ccc(Cl)cc2)N(c2ccc(S(N)(=O)=O)cc2)C(N)=N1 (stereo unspecified)
GI50 (786-0): > 100 µM (inactive)
GI50 (A498): > 100 µM (inactive)
GI50 (A549): > 100 µM (inactive)
GI50 (ACHN): > 100 µM (inactive)
GI50 (BT-549): > 100 µM (inactive)
GI50 (CAKI-1): > 100 µM (inactive)
GI50 (CCRF-CEM): > 100 µM (inactive)
GI50 (COLO 205): > 100 µM (inactive)
GI50 (DU-145): > 100 µM (inactive)
GI50 (EKVX): > 100 µM (inactive)
GI50 (HCT-116): > 100 µM (inactive)
GI50 (HCT-15): > 100 µM
GI50 (HOP-62): > 100 µM (inactive)
GI50 (HOP-92): > 100 µM (inactive)
GI50 (HT-29): > 100 µM (inactive)
GI50 (Hs-578T): > 100 µM (inactive)
GI50 (IGROV-1): > 100 µM (inactive)
GI50 (K562): > 100 µM (inactive)
GI50 (KM12): > 100 µM (inactive)
GI50 (LOX IMVI): > 100 µM (inactive)
GI50 (M14): > 100 µM (inactive)
GI50 (MCF7): > 100 µM (inactive)
GI50 (MDA-MB-231): > 100 µM (inactive)
GI50 (MDA-MB-435): > 100 µM (inactive)
GI50 (MDA-N): > 100 µM (inactive)
GI50 (MOLT-4): > 100 µM (inactive)
GI50 (Malme-3M): > 100 µM (inactive)
GI50 (NCI-H226): > 100 µM (inactive)
GI50 (NCI-H23): > 100 µM (inactive)
GI50 (NCI-H460): > 100 µM (inactive)
GI50 (NCI-H522): > 100 µM (inactive)
GI50 (NCI/ADR-RES): > 100 µM (inactive)
GI50 (OVCAR-3): > 100 µM (inactive)
GI50 (OVCAR-4): > 100 µM (inactive)
GI50 (OVCAR-5): > 100 µM (inactive)
GI50 (OVCAR-8): > 100 µM (inactive)
GI50 (PC-3): > 100 µM (inactive)
GI50 (RPMI-8226): > 100 µM (inactive)
GI50 (RXF 393): > 100 µM (inactive)
GI50 (SF-268): > 100 µM (inactive)
GI50 (SF-295): > 100 µM (inactive)
GI50 (SF-539): > 100 µM (inactive)
GI50 (SK-MEL-28): > 100 µM (inactive)
GI50 (SK-MEL-2): > 100 µM (inactive)
GI50 (SK-MEL-5): > 100 µM (inactive)
GI50 (SK-OV-3): > 100 µM (inactive)
GI50 (SN12C): > 100 µM (inactive)
GI50 (SNB-19): > 100 µM (inactive)
GI50 (SNB-75): > 100 µM (inactive)
GI50 (SR): > 100 µM (inactive)
GI50 (SW-620): > 100 µM (inactive)
GI50 (T47D): > 100 µM (inactive)
GI50 (TK-10): > 100 µM (inactive)
GI50 (U-251): > 100 µM (inactive)
GI50 (UACC-257): > 100 µM (inactive)
GI50 (UACC-62): > 100 µM (inactive)
GI50 (UO-31): > 100 µM (inactive)

Reference: ChEMBL document CHEMBL1201862, “PubChem BioAssay data set” (2004)
